Measured values as given in EP0240392A1, “Compounds of the cyclophosphazene type, process for their preparation and pharmaceutical preparation containing them” (CENTRE NATIONAL DE LA RECHERCHE SCIENTIFIQUE (CNRS), priority 1986, dated 1987).
Marks after values point to notes of the source that are not given here.

How the values were obtained:
[1] = system: CARCINOME DU POUMON DE LEWIS; experiment: Antitumour activity on Lewis lung carcinoma implanted i.m. in mice; assay type: in vivo, souris C57Bl/6
Excerpt: (§1) Les tests d'activité antitumorale ont été conduits au sein du Screening and Pharmacology Group de l'E.O.R.T.C., implanté à l'Institut Mario Negri de Milan.
(§2) Ces essais ont été conduits soit en mono-injection à différentes doses au jour J+1 suivant la greffe de la tumeur, soit en poly-injections chroniques Q1D, soit en protocoles Q4D.

[2] = system: RETICULO SARCOME M5076 MURIN; experiment: Antitumour activity on murine M5076 reticulum sarcoma implanted i.m. in mice; assay type: in vivo, souris C57Bl/6; conditions: for Poids corporel (g±S.E.) / Poids de la rate (mg±S.E.) / Poids de la tumeur (g±S.E.) / Poids du foie (g±S.E.): jour 23; for nombre de souris vivantes/total: Tableau 5
Excerpt: as §1, §2

[3] = 200 mg/kg i.p. x j 1,5,9, sacrifice jour 25
[4] = 100 mg/kg i.p. x j 1-9, jour 21
[5] = 150 mg/kg i.p. x j 1,5,9, jour 14
[6] = 150 mg/kg i.p. x j 1,5,9, jour 21
[7] = 150 mg/kg i.p. x j 1-9, jour 21
[8] = 200 mg/kg i.p. x j 1,5,9, jour 14
[9] = 200 mg/kg i.p. x j 1,5,9, jour 21
[10] = 250 mg/kg i.p. x j 1,5,9, jour 14
[11] = 250 mg/kg i.p. x j 1,5,9, jour 21
[12] = 300 mg/kg i.p. x j 1,5,9, jour 21

C(CCN1CCCNP12=NP(N1CC1)(N1CC1)=NP(N1CC1)(N1CC1)=N2)CN1CCCNP12=NP(N1CC1)(N1CC1)=NP(N1CC1)(N1CC1)=N2 (stereo not shown) [SPM]
Volume de la tumeur (d^2.D/2)cm^3 ± S.E. ([1]; 200 mg/kg i.p. x j 1,5,9, jour 10): 0,53±0,08 cm^3 | Volume de la tumeur (d^2.D/2)cm^3 ± S.E. ([1]; 200 mg/kg i.p. x j 1,5,9, jour 13): 1,64±0,18 cm^3 | Volume de la tumeur (d^2.D/2)cm^3 ± S.E. ([1]; 200 mg/kg i.p. x j 1,5,9, jour 17): 3,49±0,15* cm^3 | Volume de la tumeur (d^2.D/2)cm^3 ± S.E. ([1]; 200 mg/kg i.p. x j 1,5,9, jour 20): 4,35±0,26* cm^3 | Volume de la tumeur (d^2.D/2)cm^3 ± S.E. ([1]; 200 mg/kg i.p. x j 1,5,9, jour 24): 6,08±0,31* cm^3 | Métastases Nombre moyen (N ± S.E.) [1, 3]: 14 ± 3,4 | Métastases Poids moyen (mg ± S.E.) [1, 3]: 127,3 ± 43,1 mg | Poids moyen de la tumeur (g ± S.E.) [1, 3]: 7,40 ± 0,33 g | activité sur le carcinome du poumon de Lewis (result in words) ([1]; souris C57B1/6): intéressante activité | Volume moyen de la tumeur (cm^3 ± S.E.) ([2]; 50 mg/kg i.p. x j 1-9, jour 14): 0,38±0,01 cm^3 | nombre de souris avec tumeur/total ([2]; 50 mg/kg i.p. x j 1-9, jour 14): 4/10 | Volume moyen de la tumeur (cm^3 ± S.E.) ([2]; 50 mg/kg i.p. x j 1-9, jour 21): 2,03±0,17 cm^3 | nombre de souris avec tumeur/total ([2]; 50 mg/kg i.p. x j 1-9, jour 21): 9/9 | Poids corporel (g±S.E.) ([2]; 50 mg/kg i.p. x j 1-9): 20,05±0,60 g | Poids de la rate (mg±S.E.) ([2]; 50 mg/kg i.p. x j 1-9): 206,8±12,0 mg | Poids de la tumeur (g±S.E.) ([2]; 50 mg/kg i.p. x j 1-9): 3,4033±0,26 g | Poids du foie (g±S.E.) ([2]; 50 mg/kg i.p. x j 1-9): 1,6089±0,10 g | nombre de souris avec tumeur/total ([2]; 100 mg/kg i.p. x j 1-9, jour 14): - (0/10) | Volume moyen de la tumeur (cm^3 ± S.E.) [2, 4]: 0,92±0,03 cm^3 | nombre de souris avec tumeur/total [2, 4]: 12/12 | Poids corporel (g±S.E.) ([2]; 100 mg/kg i.p. x j 1-9): 20,22±0,37 g | Poids de la rate (mg±S.E.) ([2]; 100 mg/kg i.p. x j 1-9): 137,9±5,04 mg | Poids de la tumeur (g±S.E.) ([2]; 100 mg/kg i.p. x j 1-9): 2,1947±0,07 g | Poids du foie (g±S.E.) ([2]; 100 mg/kg i.p. x j 1-9): 1,1750±0,03 g | Volume moyen de la tumeur (cm^3 ± S.E.) [2, 5]: 0,41±0,04 cm^3 | nombre de souris avec tumeur/total [2, 5]: 4/10 | Volume moyen de la tumeur (cm^3 ± S.E.) [2, 6]: 2,23±0,16 cm^3 | nombre de souris avec tumeur/total [2, 6]: 10/10 | Poids corporel (g±S.E.) ([2]; 150 mg/kg i.p. x j 1,5,9): 21,55±0,29 g | Poids de la rate (mg±S.E.) ([2]; 150 mg/kg i.p. x j 1,5,9): 240,7±17,1 mg | Poids de la tumeur (g±S.E.) ([2]; 150 mg/kg i.p. x j 1,5,9): 3,5869±0,18 g | Poids du foie (g±S.E.) ([2]; 150 mg/kg i.p. x j 1,5,9): 1,7270±0,10 g | nombre de souris avec tumeur/total ([2]; 150 mg/kg i.p. x j 1-9, jour 14): - (0/10) | Volume moyen de la tumeur (cm^3 ± S.E.) [2, 7]: 0,72±0 cm^3 | nombre de souris avec tumeur/total [2, 7]: 1/10 | Poids corporel (g±S.E.) ([2]; 150 mg/kg i.p. x j 1-9): 17,55±0,70 g | Poids de la rate (mg±S.E.) ([2]; 150 mg/kg i.p. x j 1-9): 103,0±6,02 mg | Poids de la tumeur (g±S.E.) ([2]; 150 mg/kg i.p. x j 1-9): 1,0795±0,11 g | Poids du foie (g±S.E.) ([2]; 150 mg/kg i.p. x j 1-9): 1,0190±0,03 g | Volume moyen de la tumeur (cm^3 ± S.E.) [2, 8]: 0,36±0,04 cm^3 | nombre de souris avec tumeur/total [2, 8]: 2/10 | Volume moyen de la tumeur (cm^3 ± S.E.) [2, 9]: 2,02±0,26 cm^3 | nombre de souris avec tumeur/total [2, 9]: 10/10 | Poids corporel (g±S.E.) ([2]; 200 mg/kg i.p. x j 1,5,9): 21,05±0,39 g | Poids de la rate (mg±S.E.) ([2]; 200 mg/kg i.p. x j 1,5,9): 208,6± 8,8 mg | Poids de la tumeur (g±S.E.) ([2]; 200 mg/kg i.p. x j 1,5,9): 3,2003±0,18 g | Poids du foie (g±S.E.) ([2]; 200 mg/kg i.p. x j 1,5,9): 1,4620±0,08 g | nombre de souris avec tumeur/total ([2]; 200 mg/kg i.p. x j 1-9, jour 14): - (0/10) | nombre de souris avec tumeur/total ([2]; 200 mg/kg i.p. x j 1-9, jour 21): - (0/10) | Poids corporel (g±S.E.) ([2]; 200 mg/kg i.p. x j 1-9): 17,20±0,48 g | Poids de la rate (mg±S.E.) ([2]; 200 mg/kg i.p. x j 1-9): 117,8±9,9 mg | Poids de la tumeur (g±S.E.) ([2]; 200 mg/kg i.p. x j 1-9): 0,3819±0,13 g | Poids du foie (g±S.E.) ([2]; 200 mg/kg i.p. x j 1-9): 1,1088±0,01 g | Volume moyen de la tumeur (cm^3 ± S.E.) [2, 10]: 0,32 cm^3 | nombre de souris avec tumeur/total [2, 10]: 1/9 | Volume moyen de la tumeur (cm^3 ± S.E.) [2, 11]: 1,02±0,08 cm^3 | nombre de souris avec tumeur/total [2, 11]: 8/9 | Poids corporel (g±S.E.) ([2]; 250 mg/kg i.p. x j 1,5,9): 20,16±0,47 g | Poids de la rate (mg±S.E.) ([2]; 250 mg/kg i.p. x j 1,5,9): 144,5± 7,3 mg | Poids de la tumeur (g±S.E.) ([2]; 250 mg/kg i.p. x j 1,5,9): 2,4530±0,18 g | Poids du foie (g±S.E.) ([2]; 250 mg/kg i.p. x j 1,5,9): 1,2015±0,04 g | nombre de souris avec tumeur/total ([2]; 300 mg/kg i.p. x j 1,5,9, jour 14): - (0/10) | Volume moyen de la tumeur (cm^3 ± S.E.) [2, 12]: 0,94±0,09 cm^3 | nombre de souris avec tumeur/total [2, 12]: 9/10 | Poids corporel (g±S.E.) ([2]; 300 mg/kg i.p. x j 1,5,9): 20,20±0,53 g | Poids de la rate (mg±S.E.) ([2]; 300 mg/kg i.p. x j 1,5,9): 125,6±10,8 mg | Poids de la tumeur (g±S.E.) ([2]; 300 mg/kg i.p. x j 1,5,9): 2,2664±0,19 g | Poids du foie (g±S.E.) ([2]; 300 mg/kg i.p. x j 1,5,9): 1,2654±0,06 g | nombre de souris vivantes/total ([2]; 250 mg/kg i.p. x j 1,5,9): 250 " ( 9/9 ) | nombre de souris vivantes/total ([2]; 300 mg/kg i.p. x j 1,5,9): 300xj 1,5,9 (10/10)
